These results are taken from ChEMBL document CHEMBL1130373, “Dual CCK-A and -B receptor antagonists (I) C9-methyl-1,4-benzodiazepines” (Bioorg Med Chem Lett, 1997).

Assay [1] deals with T1, Cholecystokinin receptor type A (Rattus norvegicus, UniProt P30551).
T1 sequence (P30551 whole entry): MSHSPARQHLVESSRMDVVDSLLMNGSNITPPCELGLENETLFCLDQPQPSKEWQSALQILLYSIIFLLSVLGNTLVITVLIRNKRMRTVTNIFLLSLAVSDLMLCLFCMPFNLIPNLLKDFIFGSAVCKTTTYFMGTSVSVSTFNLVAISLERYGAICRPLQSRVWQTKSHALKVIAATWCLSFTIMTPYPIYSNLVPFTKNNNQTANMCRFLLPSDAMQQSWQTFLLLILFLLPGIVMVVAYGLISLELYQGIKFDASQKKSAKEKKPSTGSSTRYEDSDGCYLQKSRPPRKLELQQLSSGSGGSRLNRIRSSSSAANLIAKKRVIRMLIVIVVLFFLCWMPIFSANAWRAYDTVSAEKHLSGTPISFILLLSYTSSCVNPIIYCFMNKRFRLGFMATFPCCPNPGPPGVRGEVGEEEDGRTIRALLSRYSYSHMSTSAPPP
Kind of assay: Inhibition of [125I]Cholecystokinin-8 (125I-CCK-8) binding to Cholecystokinin type A receptor of rat pancreatic membranes. It is filed as cell membranes, Membrane.

Assay [2] in a line: Selectivity for cholecystokinin A and B receptors.
For assay [3], the target named is T1, Cholecystokinin receptor type A. Kind of assay: Inhibition of [125I]Cholecystokinin-8 binding to Cholecystokinin type A receptor of rat pancreatic membranes. It is filed as cell membranes, Membrane.

As usually defined, the IC50 is the point on the concentration scale where inhibition reaches its midpoint. The low end stands for greater potency, the high end for weaker potency.

On to `CSc1cccc(NC(=O)NC2N=C(c3ccccc3F)c3cccc(C)c3N(CC(=O)N3CC4CCC(CC4)C3)C2=O)c1` (configuration not stated), for which, in assay [1], the IC50 is 21 nM. This compound also displayed a Selectivity in assay [2] of 57.
The corresponding values for `COc1cccc(NC(=O)NC2N=C(c3ccccc3F)c3cccc(C)c3N(CC(=O)N3CC4CCC(CC4)C3)C2=O)c1` (configuration not stated) are 7.3 nM and 7.3.
In turn, `Cc1cccc2c1N(CC(=O)N1CC3CCC(CC3)C1)C(=O)C(NC(=O)Nc1cccc(-c3nn[nH]n3)c1)N=C2c1ccccc1F` (stereo in doubt; 11) [listing 1 of 2 here] returned an IC50 in assay [1] of 14 nM.
As for `Cc1cccc2c1N(CC(=O)N1CC3CCC(CC3)C1)C(=O)C(NC(=O)Nc1cccc(Cl)c1)N=C2c1ccccc1F` (configuration not stated), the IC50 in assay [1] turned out to be 7.4 nM. Besides, the Selectivity in assay [2] was found to be 3.7.
As for `Cc1cccc2c1N(CC(=O)N1CC3CCC(CC3)C1)C(=O)C(NC(=O)Nc1cccc(-c3nn[nH]n3)c1)N=C2c1ccccc1F` (stereo in doubt; (-)-11) [listing 1 of 2 here], the IC50 in assay [3] came to 670 nM. In other words, the sub-micromolar range.
Compound `CC(=O)c1cccc(NC(=O)NC2N=C(c3ccccc3F)c3cccc(C)c3N(CC(=O)N3CC4CCC(CC4)C3)C2=O)c1` (configuration not stated) gave an IC50 in assay [1] of 13 nM. This compound came in with a Selectivity in assay [2] of 15.
In the case of `Cc1cccc2c1N(CC(=O)N1CC3CCC(CC3)C1)C(=O)C(NC(=O)Nc1cccc(-c3nn[nH]n3)c1)N=C2c1ccccc1F` (single isomer, unassigned; (+)) [listing 1 of 2 here], in assay [2], the Selectivity is 24.
Same read-out and setting: then `Cc1cccc2c1N(CC(=O)N1CC3CCC(CC3)C1)C(=O)C(NC(=O)Nc1cccc(-c3nn[nH]n3)c1)N=C2c1ccccc1F` (stereo in doubt; (-)-11) [listing 2 of 2 here], with 110.
On to `Cc1cccc(NC(=O)NC2N=C(c3ccccc3F)c3cccc(C)c3N(CC(=O)N3CC4CCC(CC4)C3)C2=O)c1` (configuration not stated), for which the IC50 in assay [1] came out at 17 nM. In assay [2], this compound showed a Selectivity of 36.
Take `Cc1cccc2c1N(CC(=O)N1CC3CCC(CC3)C1)C(=O)C(NC(=O)Nc1cccc(C(=O)O)c1)N=C2c1ccccc1F` (configuration not stated): the IC50 in assay [1] was determined as 160 nM. In assay [2], this compound had a Selectivity of 170.
The corresponding values for `Cc1cccc2c1N(CC(=O)N1CC3CCC(CC3)C1)C(=O)C(NC(=O)Nc1cccc(Br)c1)N=C2c1ccccc1F` (configuration not stated) are 5.1 nM and 2.8.
Regarding `Cc1cccc2c1N(CC(=O)N1CC3CCC(CC3)C1)C(=O)C(NC(=O)Nc1cccc(-c3nn[nH]n3)c1)N=C2c1ccccc1F` (stereo in doubt; 11) [listing 2 of 2 here], the Selectivity in assay [2] is 21.
On to `Cc1cccc2c1N(CC(=O)N1CC3CCC(CC3)C1)C(=O)C(NC(=O)Nc1cccc(-c3nn[nH]n3)c1)N=C2c1ccccc1F` (single isomer, unassigned; (+)) [listing 2 of 2 here], for which the IC50 in assay [3] turned out to be 9.2 nM.
Compound `Cc1cccc(NC(=O)NC2N=C(c3ccccc3F)c3ccccc3N(CC(=O)N3CC4CCC(CC4)C3)C2=O)c1` (configuration not stated) returned an IC50 in assay [1] of 62 nM. The same compound yielded a Selectivity in assay [2] of 710.
